We go through three compounds from paper PMC7338124, “Characterization of neuraminidase inhibitor-resistant influenza virus isolates from immunocompromised patients in the Republic of Korea” (Virology Journal, 2020).

Assay [1] has as its system A/Korea/S0003/2019 A(H1N1)pdm09 neuraminidase, Variant (H275Y). In kind it is biochemical, influenza A(H1N1)pdm09 virus.
The test system of assay [2] is A/Korea/S0002/2019 A(H1N1)pdm09 neuraminidase, Variant (H275Y). In kind it is biochemical, influenza A(H1N1)pdm09 virus.
For assay [3], the system named is 2018–2019 isolates A(H1N1)pdm09 neuraminidase, Wild. In kind it is biochemical, influenza A(H1N1)pdm09 virus.
Assay [4] concerns 2018–2019 isolates A(H3N2) neuraminidase, Wild. In kind it is biochemical, influenza A(H3N2) virus.
In assay [5] the test system is 2018–2019 isolates B neuraminidase, Wild. In kind it is biochemical, influenza B virus.

As for `CC(=O)N[C@H]1[C@H]([C@H](O)[C@H](O)CO)OC(C(=O)O)=C[C@@H]1N=C(N)N` [Zanamivir], the “NAI resistance (IC50 fold change)” value in assay [1] is on record as “NI 2.56 fold”; in assay [2], “NI 0.44 fold”; in assay [3], 0.3–0.7 fold; in assay [4], 0.4–0.8 fold; in assay [5], 0.7–1.6 fold. For the same compound, the “Susceptibility to NAI (in words)” value in assay [1] and in assay [2] was “normally susceptible” throughout.

`CCC(CC)[C@H](NC(C)=O)[C@@H]1[C@H](O)[C@@H](C(=O)O)C[C@H]1N=C(N)N` [Peramivir]: the entries for the “NAI resistance (IC50 fold change)” value in assay [3], in assay [4] and in assay [5] were 0.1 fold, 0.2–0.3 fold and 0.3–0.4 fold, respectively.

For the compound `CCOC(=O)C1=C[C@@H](OC(CC)CC)[C@H](NC(C)=O)[C@@H](N)C1` [Oseltamivir], the “NAI resistance (IC50 fold change)” value in assay [3] is recorded as 0.1–1.2 fold; in assay [4], 0.1–0.2 fold.
